{"source": "patent US20160153998A1", "about": "“BIOMARKERS FOR PREDICTING THE SENSITIVITY OF CELLS TO IMMUNOMODULATORY COMPOUNDS DURING TREATMENT OF NON-HODGKIN'S LYMPHOMA” (Celgene Corporation, priority 2007, published 2016)", "assay_type_in_all_cases": "cell-based", "key": {"Rec-1 cells [1]": {"system": "Rec-1 cells", "assay": "Real-time PCR gene expression in Rec-1 cells", "conditions": "1, 10 or 100 μM, 24 or 48 hours, alone or with dexamethasone 10 nM", "description": "(§1) After the cell treatment, total RNA was purified. Real-time PCR was performed with 100 ng of total RNA, using an Applied Biosystems 7500 instrument (Applied Biosystems, Foster City, Calif.) using TaqMan Sequence Detection chemistry which uses a fluorogenic probe (FAM) to enable the detection of a specific PCR product as it accumulates during PCR. Samples were prepared in triplicate in 50 μl reaction volumes. The 50 μl reactions consisted of 25 μl 2× TaqMan PCR master mix, 2.5 μl of 20× gene expression assay, 10 μl of RNA ([…]) and 12.5 μl water. Glyceraldehyde-3-phosphate dehydrogenase (GAPDH) was used as the endogenous control to ensure equal RNA amounts in each sample.\n(§2) TaqMan® Gene Expression Assays were pre-formulated gene expression assays for rapid, reliable detection and quantification of human, mouse and rat mRNA transcripts. The PCR program used was: 50° C. for 2 minutes, 95° C. for 10 minutes, 40 cycles of 95° C. for 15 seconds, 60° C. for 1 minute. Data was analyzed using 7500 Real-Time PCR System Sequence Detection software v1.3 using the comparative CT relative quantification calculation method. The output was expressed as a fold-change of expression levels. The threshold level was selected to be automatically determined by the software and was set to be above the baseline but sufficiently low to be within the exponential growth region of an amplification curve. The cycle number at which the fluorescence signal associated with a particular amplicon accumulation crosses the threshold is referred to as the CT.\nThe effect of 1,3-dioxo-2-(2,6-dioxopiperidin-3-yl)-4-aminoisoindoline or 1-oxo-2-(2,6-dioxopiperidin-3-yl)-4-aminoisoindoline, either alone or in combination with Dexamethasone (10 nM) on the expression of several important genes involved in the regulation of NHL cell proliferation and survival was determined using Rec-1 cells (FIG. 1). The immunomodulatory compounds 1,3-dioxo-2-(2,6-dioxopiperidin-3-yl)-4-aminoisoindoline or 1-oxo-2-(2,6-dioxopiperidin-3-yl)-4-aminoisoindoline were added to the Rec-1 cells at a final concentration of 1, 10, or 100 μM. After 24 or 48 hours of incubation with 1,3-dioxo-2-(2,6-dioxopiperidin-3-yl)-4-aminoisoindoline or 1-oxo-2-(2,6-dioxopiperidin-3-yl)-4-aminoisoindoline, gene expression of VEGF, p21, p53, and cyclin D1 was measured using real-time PCR."}, "Jeko-1 cells [2]": {"system": "Jeko-1 cells", "assay": "Real-time RT-PCR mRNA levels in Jeko-1 cells", "conditions": "24 hours", "description": "as §1, §2\nJeko-1 cells were treated with immunomodulatory compounds, with or without dexamethasone (10 nM) for 24 hours. Total RNA was then isolated from the treated cells, and the samples were subjected to real-time RT-PCR analysis to determine gene transcription at the mRNA level. […] 1,3-dioxo-2-(2,6-dioxopiperidin-3-yl)-4-aminoisoindoline (at 10 μM) enhanced mRNA levels of these genes up to about 3-fold. 1-oxo-2-(2,6-dioxopiperidin-3-yl)-4-aminoisoindoline (1 μM) enhanced activin A mRNA level up to 2.6-fold, and SPARC was enhanced at 10 μM."}, "[3]": {"system": "NHL cell lines (Namalwa, Jeko-1, Rec-1, Granta-519, DB, JVM-2)", "assay": "NHL cell proliferation, 3H-thymidine incorporation", "description": "(§3) NHL cell proliferation was assessed by 3H-thymidine incorporation assay. Briefly, cells were cultured in 96 well cell culture plates in complete RPMI-1640 medium in the presence and absence of drugs. Following incubation at 37° C. for 3 days, 1 μCi 3H-thymidine was added to each well for the last 5 hours of incubation. The 3H incorporation of each well was then measured.\n(§4) To better understand how the effectiveness of immunomodulatory compound administration varies among different cancer cell types, the immunomodulatory compound 1-oxo-2-(2,6-dioxopiperidin-3-yl)-4-aminoisoindoline was tested in vitro for its anti-proliferative effect in several NHL cell lines after 1-3 days of treatment. The method utilized ^3H-thymidine incorporation, microbead array technology and real time PCR. The six tested cell lines were Namalwa, Jeko-1, Rec-1, Granta-519, DB, and JVM-2."}, "DB cell line": {"system": "DB cell line", "assay": "NHL cell proliferation, 3H-thymidine incorporation, DB cells", "conditions": "DB (t(14;18)) cells", "description": "as §3, §4"}, "NHL cells": {"system": "NHL cells", "assay": "Real-time RT-PCR gene expression in NHL cell lines", "description": "as §1, §2\nThe effect of the administration of 1-oxo-2-(2,6-dioxopiperidin-3-yl)-4-aminoisoindoline in various NHL cells was measured after 24 hours of incubation, using real-time RT-PCR (FIG. 9)."}, "Namalwa cells [4]": {"system": "Namalwa cells", "assay": "Luminex assay for VEGF production, Namalwa", "conditions": "3 days", "description": "(§5) Cells were treated with the drug for 3 days in 96 well plates. Cell culture supernatants were then collected for measurement of VEGF using Luminex/xMAP® technology.\n(§6) 1-oxo-2-(2,6-dioxopiperidin-3-yl)-4-aminoisoindoline inhibited the production of the pro-angiogenic growth factor VEGF from anti-proliferation sensitive NHL cells, such as Namalwa, Jeko-1 and Rec-1 cells."}, "Jeko-1 cells [5]": {"system": "Jeko-1 cells", "assay": "Luminex assay for VEGF production, Jeko-1", "conditions": "3 days", "description": "as §5, §6"}, "Rec-1 cells [6]": {"system": "Rec-1 cells", "assay": "Luminex assay for VEGF production, Rec-1", "conditions": "3 days", "description": "as §5, §6"}, "Granta-519 cells": {"system": "Granta-519 cells", "assay": "Luminex assay for VEGF production, Granta-519", "conditions": "3 days", "description": "as §5, §6"}, "DB cells": {"system": "DB cells", "assay": "Luminex assay for VEGF production, DB", "conditions": "3 days", "description": "as §5, §6"}, "sensitive NHL cells": {"system": "sensitive NHL cells", "assay": "Luminex assay for VEGF production, sensitive NHL cells", "description": "as §5, §6"}, "Rec-1 cells [7]": {"system": "Rec-1 cells", "assay": "Rec-1 cell growth in the presence of rhVEGF or anti-VEGF antibody", "conditions": "Rec-1 cells (FIG. 8)", "description": "as §3"}, "Namalwa cells [8]": {"system": "Namalwa cells", "assay": "Real-time RT-PCR gene expression in Namalwa cells", "description": "as §1, §2\nThe effect of the administration of 1-oxo-2-(2,6-dioxopiperidin-3-yl)-4-aminoisoindoline in Namalwa cells after 48 hours of drug treatment was measured.\nThe effect of administration of 1-oxo-2-(2,6-dioxopiperidin-3-yl)-4-aminoisoindoline at various time points from 0 to 48 hours in the fold change in expression of several genes was measured in Namalwa cells (FIG. 11)."}, "Namalwa cells [9]": {"system": "Namalwa cells", "assay": "Proliferation of Namalwa cells after SPARC siRNA knockdown", "conditions": "SPARC siRNA 200 nM, drug for 2 days", "description": "as §3\nCells were transfected with SPARC or cyclophilin siGENME SMARTpool (Dharmacon, Lafayette, Colo.) at final concentration of 200 nM using DharmaFECT 2 transfection reagents following the manufacturer's protocol. After 24 hours of transfection, cells were then treated with the drug for 2 days.\nSPARC siRNA was transfected to Namalwa cells to determine the effect of a SPARC knockdown on the antiproliferative effect of 1-oxo-2-(2,6-dioxopiperidin-3-yl)-4-aminoisoindoline in Namalwa cells. The anti-proliferative effect of 1-oxo-2-(2,6-dioxopiperidin-3-yl)-4-aminoisoindoline is weaker after SPARC knockdown compared to mock transfected control cells."}, "[10]": {"conditions": "Namalwa cells, 10 μM, 2-48 hours"}}, "data": [{"smiles": "Nc1cccc2c1CN(C1CCC(=O)NC1=O)C2=O", "note": "(centres unmarked) [1-oxo-2-(2,6-dioxopiperidin-3-yl)-4-aminoisoindoline]", "values": [{"measurement": "VEGF mRNA level", "setting": "Rec-1 cells [1]", "result": "decrease"}, {"measurement": "p21 mRNA level", "setting": "Rec-1 cells [1]", "result": "increase"}, {"measurement": "enhancement of activin A mRNA level", "setting": "Jeko-1 cells [2]; 1 μM", "result": "up to 2.6 fold"}, {"measurement": "SPARC mRNA level", "setting": "Jeko-1 cells [2]; 10 μM", "result": "enhanced"}, {"measurement": "anti-proliferative activity against NHL cells", "setting": "[3]; 1-3 days of treatment", "result": "demonstrated anti-proliferative activity"}, {"measurement": "order of sensitivity of NHL cell lines to the compound", "setting": "[3]; 3 day incubation", "result": "Namalwa>Rec-1>Jeko-1>Granta-519>JVM-2>DB"}, {"measurement": "cell proliferation of DB cell line", "setting": "DB cell line", "result": "increased rate of cell proliferation"}, {"measurement": "VEGF mRNA expression", "setting": "NHL cells; NHL cells", "result": "does not inhibit"}, {"measurement": "p21 in sensitive and resistant (DB) cells", "setting": "NHL cells; both sensitive and resistant (DB) cells", "result": "elevated p21 was observed"}, {"measurement": "elevation of SPARC mRNA in resistant cells", "setting": "NHL cells; resistant cells", "result": "not seen"}, {"measurement": "SPARC expression", "setting": "NHL cells; sensitive NHL cells, 24 hours", "result": "increased"}, {"measurement": "p21cip/kip expression", "setting": "NHL cells; sensitive NHL cells, 24 hours", "result": "increased"}, {"measurement": "SPARC mRNA expression", "setting": "NHL cells; several NHL cell lines", "result": "increased expression of SPARC mRNA"}, {"measurement": "p21cip/kip expression", "setting": "NHL cells; several cell lines", "result": "increased"}, {"measurement": "production of VEGF", "setting": "Namalwa cells [4]", "result": "inhibited"}, {"measurement": "production of VEGF", "setting": "Jeko-1 cells [5]", "result": "inhibited"}, {"measurement": "production of VEGF", "setting": "Rec-1 cells [6]", "result": "inhibited"}, {"measurement": "production of VEGF", "setting": "Granta-519 cells", "result": "fails to inhibit"}, {"measurement": "production of VEGF", "setting": "DB cells", "result": "fails to inhibit"}, {"measurement": "concentrations for the effect on VEGF compared with anti-proliferative effects", "setting": "sensitive NHL cells", "result": "well below levels required for anti-proliferative effects"}, {"measurement": "production of the proangiogenic growth factor VEGF", "setting": "sensitive NHL cells; FIG. 7", "result": "inhibits"}, {"measurement": "anti-proliferative activity on addition of exogenous recombinant human VEGF (in excess) or neutralizing VEGF antibody", "setting": "Rec-1 cells [7]", "result": "does not affect"}, {"measurement": "change in expression of BlyS", "setting": "Namalwa cells [8]; [10]", "result": "did not exhibit a significant change"}, {"measurement": "change in expression of VEGF", "setting": "Namalwa cells [8]; [10]", "result": "did not exhibit a significant change"}, {"measurement": "change in expression of cyclin D1", "setting": "Namalwa cells [8]; [10]", "result": "did not exhibit a significant change"}, {"measurement": "change in expression of p53/p73", "setting": "Namalwa cells [8]; [10]", "result": "did not exhibit a significant change"}, {"measurement": "anti-proliferative effect after SPARC knockdown compared to mock transfected control cells", "setting": "Namalwa cells [9]", "result": "weaker"}]}, {"smiles": "C[C@@H]1C[C@H]2[C@@H]3CCC4=CC(=O)C=C[C@]4(C)[C@@]3(F)[C@@H](O)C[C@]2(C)[C@@]1(O)C(=O)CO", "note": "[dexamethasone]", "values": [{"measurement": "SPARC expression", "setting": "Namalwa cells [8]; dexamethasone alone, NHL cells such as Namalwa", "result": "no effect"}]}, {"smiles": "Nc1cccc2c1C(=O)N(C1CCC(=O)NC1=O)C2=O", "note": "(centres unmarked) [1,3-dioxo-2-(2,6-dioxopiperidin-3-yl)-4-aminoisoindoline]", "values": [{"measurement": "VEGF mRNA level", "setting": "Rec-1 cells [1]", "result": "decrease"}, {"measurement": "p21 mRNA level", "setting": "Rec-1 cells [1]", "result": "increase"}, {"measurement": "enhancement of mRNA levels of p21, activin A and SPARC", "setting": "Jeko-1 cells [2]; 10 μM", "result": "about 3 fold"}, {"measurement": "SPARC mRNA level", "setting": "Jeko-1 cells [2]; 1-10 μM", "result": "up-regulate"}, {"measurement": "activin A mRNA level", "setting": "Jeko-1 cells [2]; 1-10 μM", "result": "up-regulate"}, {"measurement": "p21 mRNA level", "setting": "Jeko-1 cells [2]; 1-10 μM", "result": "up-regulate"}, {"measurement": "effect on p21", "setting": "Jeko-1 cells [2]", "result": "clear enhancing effect"}]}]}
